# In patent US12714696B2, “Low dose fluralaner compositions for protection against parasitic invertebrate pest” (VIRBAC, priority 2019, dated 2026):
# Where “and” joins values, the source holds several entries; their conditions need not be identical. Equal values may be shown once. Read-outs that look alike come from different tables or passages of the source.
# Test: Pharmacokinetics after repeated oral administration of 35 μg/kg of fluralaner in dogs after feeding
# Assay type: in vivo, beagle dogs
# Details: oral 35 μg/kg Days 0-3, dogs; for concentration at 480 h / concentration at 576 h / concentration at 672 h / AUC(0-inf) / AUC(0-t) / Cmax / half-life: beagle, dog, plasma, po; for concentration at 480 h / concentration at 576 h / concentration at 672 h: 35 μg/kg; for AUC(0-inf) / AUC(0-t) / Cmax / half-life: 35 ug/kg
# Protocol: The first objective of the study was to obtain the pharmacokinetic parameters after repeated oral administration of 35 μg/kg of fluralaner in dogs, 30 to 35 minutes after feeding.
# The second objective was to investigate the pharmacodynamics between the fluralaner plasmatic dose and the effectiveness against fleas. • IVP: Investigational Veterinary Product, is pure Fluralaner+DMSO (35 μg/kg on Days 0 to 3 (0.35 mL/kg)) • Control product is DMSO (0.35 mL/kg on Days 0 to 3)
# On Days 0, 1, 2 and 3, all dogs assigned to group 2 received the Investigational Veterinary Product. On Days 0 to 3 all dogs in group 1 received the control product at a volume equal to the dogs in group 2. Dogs assigned to group 1 received the control product and served as Placebo controls. The quantity of Investigational Veterinary Product and control product administered was calculated according to the dog's individual body weight measured on Day −1.
# Blood samples were taken from all dogs prior to Investigational Veterinary Product treatment or control product administration on Day 0 and on Days 1 (+24 hours), 2 (+48 hours), 3 (+72 hours), 4 (+96 hours), 5 (+120 hours), 10 (+240 hours), 15 (+360 hours), 20 (+480 hours), 24 (+576 hours) and Day 28 (+672 hours).
# On days of administration of pre-Investigational Veterinary Product or Control Product, dogs were fed (the same dog food) approximately half of their normal daily ration 30 minutes to 35 minutes prior to administration. Food consumed by the time of administration was calculated and recorded. The remainder of their normal daily ration was fed immediately after administration.
# The PK parameters of fluralaner were calculated using a non-compartmental approach.
# The following rules were applied for the calculation of the PK parameters: • All the plasma concentrations, validated by the bioanalytical laboratory, were used for the PK analysis. • The actual blood sampling times were used throughout. • Concentrations below the Limit of Quantification (LOQ) value were considered as zero from time zero (pre-dose) up to the time at which the first quantifiable concentration above the LOQ value was observed. Concentrations below the LOQ value between two quantifiable concentrations were considered as missing. Trailing concentrations below the LOQ value were not used in calculations.
# Cmax the observed maximum concentration in plasma measured after dosing.
# tmax the time at which Cmax was apparent.
# λz the terminal rate constant (λz) was estimated by log-linear regression analysis on data points visually assessed, to be on the terminal log-linear phase. For the slope of the terminal elimination phase to be accepted as reliable, the following criteria were used: • the terminal data points were apparently randomly distributed about a single straight line (on visual inspection), • a minimum of three data points, including the last measured data point and excluding Cmax, were available for the regression.
# t1/2 the terminal plasma half-life (t1/2) was calculated according to the following equation: […]
# AUC0-t the area under the concentration-time curve from time zero (pre-dose) to the time of last quantifiable concentration (t) was calculated using a linear trapezoidal method.
# [AUC0-∞=AUC0-t+(Ct/λz)], where Ct was the observed concentration of drug for the last sample on the PK profile in which the drug was detected, and λz was as defined above.
# The extrapolated area under the curve, expressed as a percentage of the total area, AUCinf, was also calculated as: Area Extra (%)=(AUC0-∞−AUC0-t)/AUC0-∞*100%.
# [1] = n=6, read-out: fluralaner concentration levels, Mean
# [2] = n=6, read-out: fluralaner concentration levels, Median
# [3] = n=6, read-out: fluralaner concentration levels, Minimum
# [4] = read-out: fluralaner concentration levels, individual animal
# [5] = n=6, read-out: fluralaner concentration levels, GeoMean
# [6] = n=6, read-out: fluralaner concentration levels, Maximum
structure (smiles),measurement,setting,value
"Cc1cc(C2=NOC(c3cc(Cl)cc(Cl)c3)(C(F)(F)F)C2)ccc1C(=O)NCC(=O)NCC(F)(F)F (stereo not drawn) [fluralaner, Fluralaner]",concentration at 480 h,[1],22.4 ng/mL
same,concentration at 480 h,[2],23.2 ng/mL
same,concentration at 480 h,[3],17.1 ng/mL
same,concentration at 480 h,[4],25.3 ng/mL
same,concentration at 576 h,[5],17.1 ng/mL
same,concentration at 576 h,[6],22.2 ng/mL
same,concentration at 576 h,[1],17.4 ng/mL
same,concentration at 576 h,[2],16.1 ng/mL
same,concentration at 576 h,[3],13.3 ng/mL
same,concentration at 576 h,[4],17.3 ng/mL
same,concentration at 672 h,[5],12.5 ng/mL
same,concentration at 672 h,[6],16 ng/mL
same,concentration at 672 h,[1],12.8 ng/mL
same,concentration at 672 h,[2],12.8 ng/mL
same,concentration at 672 h,[3],9.1 ng/mL
same,concentration at 672 h,[4],16 ng/mL
same,AUC(0-inf),"n=6, read-out: AUC 0-inf, GeoMean",27900 ng·h/mL
same,AUC(0-inf),"n=6, read-out: AUC 0-inf, Mean",28100 ng·h/mL
same,AUC(0-inf),"n=6, read-out: AUC 0-inf, Median",28300 ng·h/mL
same,AUC(0-t),"n=6, read-out: AUC 0-t, GeoMean",23900 ng·h/mL
same,AUC(0-t),"n=6, read-out: AUC 0-t, Mean",23900 ng·h/mL
same,AUC(0-t),"n=6, read-out: AUC 0-t, Median",24000 ng·h/mL
same,Cmax,"n=6, read-out: Cmax, GeoMean",84 ng/mL
same,Cmax,"n=6, read-out: Cmax, Mean",84.4 ng/mL
same,Cmax,"n=6, read-out: Cmax, Median",87 ng/mL
same,half-life,"n=6, read-out: t½ (terminal half-life), Mean (converted)",217 h
same,half-life,"n=6, read-out: t½, GeoMean (converted)",214 h
same,half-life,"n=6, read-out: t½, Median (converted)",233 h
same,AUC(0-inf),"read-out: AUC 0-inf, individual animal",31000 ng·h/mL
same,AUC(0-t),"read-out: AUC 0-t, individual animal",25000 ng·h/mL
same,Cmax,"read-out: Cmax, individual animal",71.8 ng/mL
same,Cmax,"read-out: maximum concentration (Cmax), range",71.8 to 92.4 ng/mL
same,half-life,"read-out: terminal half-life, range",155 to 261 h
same,half-life,"read-out: t½, individual animal (converted)",261 h
same,"AUC 0-inf, individual animal",,26895 ng·h/mL and 31726 ng·h/mL and 29670 ng·h/mL and 23684 ng·h/mL and 25369 ng·h/mL
same,"AUC 0-t, individual animal",,23395 ng·h/mL and 26334 ng·h/mL and 24538 ng·h/mL and 21644 ng·h/mL and 22612 ng·h/mL
same,"AUC extrap, individual animal",,19.5% and 13.0% and 17.0% and 17.3% and 8.6% and 10.9%
same,"Cmax, individual animal",,92.4 ng/mL and 89.4 ng/mL and 76.6 ng/mL and 91.6 ng/mL and 84.5 ng/mL
same,"Lambda z, individual animal",,0.0027 and 0.0030 (2×) and 0.0029 and 0.0045 and 0.0037
same,"t½, individual animal",,233.3 h and 233.6 h and 235.6 h and 155.2 h and 185.6 h
same,"AUC 0-inf, Maximum",n=6,31726 ng·h/mL
same,"AUC 0-inf, Minimum",n=6,23684 ng·h/mL
same,"AUC 0-t, Maximum",n=6,26334 ng·h/mL
same,"AUC 0-t, Minimum",n=6,21644 ng·h/mL
same,"AUC extrap, GeoMean",n=6,13.82%
same,"AUC extrap, Maximum",n=6,19.5%
same,"AUC extrap, Mean",n=6,14.38%
same,"AUC extrap, Median",n=6,15.00%
same,"AUC extrap, Minimum",n=6,8.6%
same,"Cmax, Maximum",n=6,92.4 ng/mL
same,"Lambda z, GeoMean",n=6,0.00324 h⁻¹
same,"Lambda z, Maximum",n=6,0.0045
same,"Lambda z, Mean",n=6,0.00329 h⁻¹
same,"Lambda z, Median",n=6,0.00297 h⁻¹
same,"Lambda z, Minimum",n=6,0.0027 h⁻¹
same,"t½, Maximum",n=6,261.4 h
same,"t½, Minimum",n=6,155.2 h
